Laboratory results published in PubChem BioAssay (NCI).
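Test compounds were applied to cells in 96-well plates for 48 hours at 5 doses. TGI is the concentration that stops growth completely.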

What was measured:
Assay in all cases: NCI-60 cell line screen, 48 h
[1] = test system: HOP-92 NSCLC
[2] = test system: SW-620 colon
[3] = test system: IGROV1 ovarian
[4] = test system: KM12 colon
[5] = test system: U251 CNS
[6] = test system: OVCAR-8 ovarian
[7] = test system: SK-OV-3 ovarian
[8] = test system: K-562 leukemia
[9] = test system: SNB-75 CNS
[10] = test system: HOP-62 NSCLC

Measured: TGI

COc1cc2c(cc1OC)C1Cc3cc(OC)c(OC)cc3C(C2)O1
> 100 µM: all assays above
